Among the data in patent US12336536B2, “Method for controlling herbicide resistant or tolerant weeds” (BASF Agro B.V., priority 2015, dated 2025) are Herbicidal activity values, retold here.

The subject of test [1] is BRSNW. The test is described as follows: Greenhouse test, solo and combination, post-emergence, 20 DAT. The class given is in vivo, Brassica napus. As to the method: (§1) The test plants have been seeded, separately for each species, in plastic containers in sandy loamy soil containing 5% of organic matter.
(§2) For the post-emergence treatment, the plants were first grown to the 2 leaf station (GS 12) and applied at GS 12-19 depending on the species. The herbicidal compositions were suspended or emulsified in water as distribution medium and sprayed using finely distributing nozzles.
(§3) The plants have been cultivated due to their individual requirements at 10-25° C. and 20-35° C. The plants were irrigated due to their necessity.
(§4) The racemic mixture (±)-2-exo-(2-Methylbenzyloxy)-1-methyl-4-isopropyl-7-oxabicyclo[2.2.1]heptane was used as herbicide A and formulated as emulsifiable concentrate having an active ingredient concentration of 750 g/l.
(§5) Cyhalofop-butyl (herbicide B.5) was used as an emulsifiable concentrate (EC) formulation having an active ingredient concentration of 200 g/l.
(§6) Metsulfuron-methyl (herbicide B.53) was used as a water soluble granule (SG) formulation having an active ingredient concentration of 20%.
(§7) Bispyribac-sodium (herbicide B.23) was used as a soluble concentrate (SL) formulation having an active ingredient concentration of 408 g/l.
(§8) Quizalofop-P-ethyl (herbicide B.217) was used as a suspension concentrate (SC) formulation having an active ingredient concentration of 106 g/l.
(§9) In the following experiments, the herbicidal activity for the individual herbicide compounds (solo and mixture applications) was assessed 20 days after treatment (DAT).
(§10) The evaluation for the damage on undesired weeds caused by the chemical compositions was carried out using a scale from 0 to 100%, compared to the untreated control plants. Here, 0 means no damage and 100 means complete destruction of the plants.
(§11) The plants used in the greenhouse experiments belonged to the following species:
(§12) E=X+Y−(X·Y/100) • where X=effect in percent using herbicide A at an application rate a; • Y=effect in percent using herbicide B at application rate b; • E=expected effect (in %) of herbicide A+herbicide B at application rates a+b.
(§13) The value E corresponds to the effect (plant damage or injury) which is to be expected if the activity of the individual compounds is additive. If the observed effect is higher than the value E calculated according to the Colby equation, a synergistic effect is present.
(§14) Tables 3 to 6 below relate the herbicidal activity, in greenhouse trials, of the individual actives and the combination applied at different rates and ratios, in post-emergence application at 20 days after treatment (DAT).

In test [2] the test system is MATIN. The test is described as above. The class given is in vivo, Matricaria inodora. As to the method: as §1, §2, §3, §4, §5, §6, §7, §8, §9, §10, §11, §12, §13, §14

Turning to “(±)-2-exo-(2-Methylbenzyloxy)-1-methyl-4-isopropyl-7-oxabicyclo[2.2.1]heptane [Herbicide A]”, the Herbicidal activity in test [1] (solo application 62.5 g ai/ha), in test [1] (solo application 125 g ai/ha), in test [1] (solo application 500 g ai/ha), in test [2] (solo application 62.5 g ai/ha), in test [2] (solo application 125 g ai/ha) and in test [2] (solo application 250 g ai/ha) was 0% in each case. Further, the Herbicidal activity in test [2] (solo application 500 g ai/ha) is 25%.
